The subject of series [1] is transcription in Drosophila extract depleted of P-TEFb. Nature of the series: Transcription activity of recombinant protein added into Drosophila extract depleted of P-TEFb (Table 1). Format: biochemical.
The subject of series [2] is RNA polymerase II. Kind of series: Kinase assay of recombinant P-TEFb subunits with RNA polymerase II as substrate (Table 1). It is filed as biochemical, Drosophila. The method, then:
0.4 μl of purified RNA polymerase II and various protein samples were mixed in 18 μl of 55 mM HMK. The reaction was then initiated by the addition of 2 μl of a solution containing 2 μCi of [γ-^32P]ATP (ICN) and unlabeled ATP at 10 μM, or only unlabeled ATP at concentrations from 1 to 100 μM or other NTPs or dNTPs at concentrations of 1 to 100 μM. Reactions were incubated for the indicated times at 23° C. and then terminated with SDS loading buffer. Samples were analyzed on a 6–15% SDS polyacrylamide gel which was silver stained, dried and subjected to autoradiography if the assay contained label.
Using the CTD Kinase assay, as previously described in Example 2, Section A.7, both HBL1-1 (SEQ ID NO:45), HBL2(SEQ ID NO:47) and HBL3 (SEQ ID NO:50) were substituted for the large subunit in the Drosophila transcription system. Alone “PITARLE” has little kinase activity and no detectable activity in transcription.

Series [3] deals with T1, RNA polymerase II (Drosophila melanogaster, UniProt P04052).
T1 construct: endogenous in cells; host or cells: Drosophila Kc cell nuclear extract; washed early elongation complexes on immobilized actin A2 template
T1 sequence (P04052 whole entry): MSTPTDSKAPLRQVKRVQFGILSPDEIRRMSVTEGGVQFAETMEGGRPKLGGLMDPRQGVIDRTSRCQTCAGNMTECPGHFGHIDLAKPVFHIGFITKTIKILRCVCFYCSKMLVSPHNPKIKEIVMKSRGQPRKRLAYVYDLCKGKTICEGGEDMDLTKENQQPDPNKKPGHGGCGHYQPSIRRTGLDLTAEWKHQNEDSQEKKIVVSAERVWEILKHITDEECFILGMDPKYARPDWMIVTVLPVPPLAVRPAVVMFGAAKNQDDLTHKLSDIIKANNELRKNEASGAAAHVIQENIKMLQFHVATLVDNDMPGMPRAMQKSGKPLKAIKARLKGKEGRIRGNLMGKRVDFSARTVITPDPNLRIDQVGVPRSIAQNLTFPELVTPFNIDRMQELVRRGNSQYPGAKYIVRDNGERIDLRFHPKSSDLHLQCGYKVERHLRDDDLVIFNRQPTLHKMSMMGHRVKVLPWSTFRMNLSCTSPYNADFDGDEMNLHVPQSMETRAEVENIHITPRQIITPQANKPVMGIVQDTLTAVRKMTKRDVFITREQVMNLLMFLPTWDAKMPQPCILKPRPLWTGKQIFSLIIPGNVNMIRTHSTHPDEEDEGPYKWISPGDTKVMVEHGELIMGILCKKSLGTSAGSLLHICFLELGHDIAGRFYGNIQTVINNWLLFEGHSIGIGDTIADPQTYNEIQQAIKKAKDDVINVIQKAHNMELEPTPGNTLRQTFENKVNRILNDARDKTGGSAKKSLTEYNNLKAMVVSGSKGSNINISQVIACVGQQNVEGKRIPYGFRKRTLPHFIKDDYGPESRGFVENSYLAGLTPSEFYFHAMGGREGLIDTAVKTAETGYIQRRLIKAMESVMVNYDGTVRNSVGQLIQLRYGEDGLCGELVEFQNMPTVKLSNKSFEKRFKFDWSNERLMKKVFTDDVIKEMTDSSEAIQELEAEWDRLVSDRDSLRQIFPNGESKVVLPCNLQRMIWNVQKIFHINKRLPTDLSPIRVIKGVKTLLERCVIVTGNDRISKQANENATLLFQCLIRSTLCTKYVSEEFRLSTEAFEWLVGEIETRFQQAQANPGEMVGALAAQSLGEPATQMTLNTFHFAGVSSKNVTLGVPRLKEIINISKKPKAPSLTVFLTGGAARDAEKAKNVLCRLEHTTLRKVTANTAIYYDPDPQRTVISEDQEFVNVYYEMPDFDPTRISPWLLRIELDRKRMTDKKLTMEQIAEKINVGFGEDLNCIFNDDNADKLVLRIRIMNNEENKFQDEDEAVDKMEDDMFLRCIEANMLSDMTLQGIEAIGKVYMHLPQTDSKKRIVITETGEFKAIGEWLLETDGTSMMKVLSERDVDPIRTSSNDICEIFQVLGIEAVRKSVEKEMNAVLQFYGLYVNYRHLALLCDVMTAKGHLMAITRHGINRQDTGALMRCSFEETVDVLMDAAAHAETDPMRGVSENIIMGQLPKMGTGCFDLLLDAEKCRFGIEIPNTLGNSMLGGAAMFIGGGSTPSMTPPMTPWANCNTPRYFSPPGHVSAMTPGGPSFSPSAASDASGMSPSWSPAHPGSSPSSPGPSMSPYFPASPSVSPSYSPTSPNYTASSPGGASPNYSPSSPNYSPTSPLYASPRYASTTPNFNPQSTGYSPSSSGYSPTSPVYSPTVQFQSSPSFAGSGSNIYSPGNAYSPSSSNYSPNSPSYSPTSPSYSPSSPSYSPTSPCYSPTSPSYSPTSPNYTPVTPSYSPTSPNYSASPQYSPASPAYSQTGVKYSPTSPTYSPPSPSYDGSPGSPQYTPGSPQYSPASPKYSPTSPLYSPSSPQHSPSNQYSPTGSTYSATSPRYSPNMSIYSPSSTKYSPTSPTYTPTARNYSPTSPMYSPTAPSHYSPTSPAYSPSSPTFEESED
Kind of series: Immobilized template add-back assay, elongation by isolated early elongation complexes. Format: biochemical. As to conditions: added prior to the chase. The method, then: Since P-TEF was first identified using an immobilized template assay, the ability of HeLa NE to generate DRB-sensitive elongation complexes when added back to isolated EECs was examined. Drosophila actin A2 DNA template and Kc cell NE was used to form EECs containing Drosophila RNA polymerase II. An immobilized A2 template was preincubated with Kc cell NE and then pulsed for 30 sec with [α-^32P] CTP. The resulting EECs were isolated, and washed. Only short transcripts were produced during the pulse and the labeled […] were removed by the washing protocol. […] However, addition of Kc cell NE to the chase, allowed some EECs to enter productive elongation and make long DRB-sensitive transcripts. When a HeLa NE that was capable of producing high levels of DRB-sensitive transcription was added to the chase, DRB-sensitive transcripts were also produced.

The record followed here is patent publication US7018836B1, “P-TEFb compositions, methods and screening assays” (priority 1996, dated 2006).

Turning to “PITALRE: human P-TEFb small (kinase) subunit, SEQ ID NO:6, HIS-tagged, baculovirus expressed”, the Transcription activity result in series [1] is recorded as “none”. Besides, in the series on RNA polymerase II [2] (RNA polymerase II as substrate), the Kinase activity entry is reported as “very little”. Besides, the “stimulation of the activity of PITALRE by the cyclin subunit” value with RNA polymerase II [2] (phosphorylation of the CTD of RNA polymerase II) is “approximately 100 fold”.

As to α-amanitin, the “elongation by all EECs” value on RNA polymerase II [3] is on record as “inhibited”.
